≈ marks a conversion by molar mass, not a printed value. Where only a bound is given, the exact number is not on record here.

Series [1] in a line: X-ray diagnostic imaging of the GI tract. It is filed as in vivo, rats. The note with it: for Imaging efficacy, stabilized with Pluronic F88: milled with F88. How it is done: X-ray diagnostic imaging was performed in anesthetized rats with the exception of G05-R1 samples which were imaged in fasted and anesthetized ferrets. Images were obtained using the Siemens C-Arm Siremobil 3U x-ray unit. The imaging dose was 10 ml/kg administered via gastric intubation to the anesthetized animal. X-rays were taken at 15, 30, 45 and 60 minutes and at 1, 2, 5 and 24 hours post-dose. […]
Images were evaluated by the criteria of: coating, homogeneity, rate of gastric emptying and the total transit time. These are considered to be a measure of the stability of the nanosuspension during transit down the GI tract and the ability of the formulation to image the lower gastrointestinal tract. Nanosuspensions were rated excellent when there was a uniform coating with transradiation of long intestinal segments, sufficient radiodensity to delineate anatomical structure, rapid emptying and transit, and stability and homogeneity during GI transit. A plus sign (+) was assigned when imaging in the lower GI was exceptional, a minus sign (-) as given when it was not. […] All other nanosuspensions were compared with this formulation.

The next series in a line: Aqueous solubility. It is filed as physicochemical. The following applies: water, Table 3.
The nature of series [2]: X-ray diagnostic imaging of the GI tract. It is filed as in vivo. The following applies: ferrets; milled in Pluronic F127. As to the method: X-ray diagnostic imaging was performed in anesthetized rats with the exception of G05-R1 samples which were imaged in fasted and anesthetized ferrets. Images were obtained using the Siemens C-Arm Siremobil 3U x-ray unit. The imaging dose was 10 ml/kg administered via gastric intubation to the anesthetized animal. X-rays were taken at 15, 30, 45 and 60 minutes and at 1, 2, 5 and 24 hours post-dose. A 10-15 ml volume of air was introduced to the animal at 30 minutes to produce a double contrast image.
Images were evaluated by the criteria of: coating, homogeneity, rate of gastric emptying and the total transit time. These are considered to be a measure of the stability of the nanosuspension during transit down the GI tract and the ability of the formulation to image the lower gastrointestinal tract. Nanosuspensions were rated excellent when there was a uniform coating with transradiation of long intestinal segments, sufficient radiodensity to delineate anatomical structure, rapid emptying and transit, and stability and homogeneity during GI transit. A plus sign (+) was assigned when imaging in the lower GI was exceptional, a minus sign (-) as given when it was not. The nanosuspension of WIN 8883 milled in Pluronic F127, was considered to be excellent for both upper and lower GI imaging in both rats and ferrets. All other nanosuspensions were compared with this formulation.

Regarding `CCCCC(CC)COC(=O)CC(C(=O)OCC(CC)CCCC)S(=O)(=O)O` (stereo not shown) [DOSS, dioctylsulfosuccinate], in series [1] (stabilizer for WIN 8883 nanosuspension), the “Stabilizing effect on imaging efficacy” value was “fair”.

Regarding `CCOC(=O)c1c(I)c(NC(C)=O)c(I)c(NC(C)=O)c1I` [WIN 8883, Ethyl 3,5-bis(acetylamino)-2,4,6-triiodobenzoate], in series [1], the “Imaging efficacy, overall” value is “excellent”; the “Imaging efficacy, stabilized with Pluronic F88” value (“Imaging efficacy, stabilized” for short) is “excellent imaging, and then only in the upper GI”. The “Upper and lower GI imaging” value in series [1] (rats, milled in Pluronic F127) is given as “excellent”. In addition, in the series “Aqueous solubility”, the solubility was less than 5 µg/mL. In series [2], the “Upper and lower GI imaging” value is given as “excellent”.

`CCOC(=O)c1c(I)c(NC(C)=O)c(I)c(C(=O)OCC)c1I` [WIN 59316, Diethyl 5-acetylamino-2,4,6-triiodo-isophthalate]: in series [1], the “Imaging efficacy, overall” value is reported as “fair” and the “Lower GI imaging” value is given as “imaging well in the lower GI tract”. Moreover, the concentration in solution in “Aqueous solubility” (solubility) came to 1 µg/mL (≈ 1.52 µM).

For `CCOC(=O)CCCCCOC(=O)c1c(I)c(NC(C)=O)c(I)c(NC(C)=O)c1I` [WIN 67722, 6-Ethoxy-6-oxohexyl 3,5-bis(acetylamino)-2,4,6-triiodobenzoate], in series [1], the “Lower GI imaging” value is given as “poor” and the “Upper GI imaging” value is given as “good”. Further, the solubility in “Aqueous solubility” amounted to 2 µg/mL (≈ 2.65 µM).

Turning to `COc1ccc(COC(=O)c2c(I)c(NC(C)=O)c(I)c(NC(C)=O)c2I)cc1` [WIN 67754, 3,5-Bis-acetylamino-2,4,6-triiodo-benzoic acid 4-methoxy-benzyl ester], in series [1], the “Imaging efficacy, overall” value is listed as “good” and the “Lower GI imaging” value was “exceptional”. In “Aqueous solubility”, this molecule displayed a solubility of 15 µg/mL (≈ 20.4 µM).

In the case of `CC(=O)Nc1c(I)c(NC(C)=O)c(I)c(C(=O)OCc2ccc(C(=O)OC(C)C)cc2)c1I` [WIN 67956, 3,5-Bis-acetylamino-2,4,6-triiodo-benzoic acid 4-isopropyl benzoate ester], in series [1], the Gastric emptying entry is given as “very rapid gastric emptying” and the “Imaging efficacy, overall” value was “good”. The Coating result in series [1] (repeated with air given at 15 minutes to induce double contrast) was “No improvement in coating”. This molecule had a solubility in the series “Aqueous solubility” of 1 µg/mL (≈ 1.27 µM).

`CCOC(=O)C(C)(OC(=O)c1c(I)c(NC(C)=O)c(I)c(NC(C)=O)c1I)C(=O)OCC` [WIN 67975]: the “Imaging efficacy, overall” value in series [1] is given as “fair”. This molecule displayed a solubility in “Aqueous solubility” of 8 µg/mL (≈ 10.2 µM).

Consider `CC(=O)Nc1c(I)c(NC(C)=O)c(I)c(C(=O)OCCCCCC(=O)OC(C)C)c1I` [WIN 67995, 3,5,-Bis-acetylamino-2,4,6-triiodo-benzoic acid 5-isopropoxycarbonyl-pentylester], for which, in series [1], the “Lower GI imaging” value is “poor” and the “Upper GI imaging” value is given as “good”. The amount in solution in “Aqueous solubility” (solubility) came to 1 µg/mL (≈ 1.3 µM).

`CC(=O)Nc1c(I)c(NC(C)=O)c(I)c(C(=O)OC(C(=O)OC(C)C)C(=O)OC(C)C)c1I` [WIN 68165, Propanedioic Acid, [[3,5-bis-(acetylamino)-2,4,6-triiodo-benzoyl]oxy]-bis(1-methylethyl)ester]: the “Imaging efficacy, overall” value in series [1] is reported as “fair”. Moreover, in the series “Aqueous solubility”, the solubility was determined as 1 µg/mL (≈ 1.25 µM).

As for `CCOC(=O)C(CC)OC(=O)c1c(I)c(NC(C)=O)c(I)c(C(=O)OC(CC)C(=O)OCC)c1I` (stereo not shown) [WIN 68183, Bis-[1-(ethoxycarbonyl)propyl]-2,4,6-triiodo-5-acetylamino-isophthalate], in series [1], the “Imaging efficacy, overall” value is given as “excellent”; the “Lower GI imaging” value is on record as “not as definitive as with WIN 8883”; the “Imaging efficacy, stabilized” value is listed as “loss of efficacy”. Besides, the solubility in “Aqueous solubility” is less than 1 µg/mL.

Regarding `CCc1c(I)c(CC)c(I)c(CC)c1I` [WIN 68756, 1,3,5-Triethyl-2,4,6-triiodobenzene], in series [1], the “Imaging efficacy, overall” value is “excellent”; the “Lower GI imaging” value was “not as definitive as with WIN 8883”; the “Imaging efficacy, stabilized” value is given as “loss of efficacy”. The molecule further yielded a solubility in “Aqueous solubility” of less than 1 µg/mL.

As a reminder, the solubility is how much of the substance goes into solution per volume.
